From PubChem BioAssay AID192 (DTP/NCI, 2004)
Where “and” joins values, the source holds several entries; their conditions need not be identical. Equal values may be shown once. Inconclusive results and toxic doses are left out.

System: BDF1 mice, B16 melanoma ip, median survival T/C
Test: NCI In Vivo Anticancer Drug Screen. Data for tumor model B16 Melanoma (intraperitoneal) in B6D2F1 (BDF1) mice
Settings: endpoint: median survival time, higher = longer survival
Procedure, shortened: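 The ratio T/C compares compound-treated mice with vehicle-treated controls, using survival or tumor size as the endpoint in a transplantable tumor model.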

[1] = dose: 100.0 mg/kg/injection, schedule: Q01DX009 (ip), vehicle: Klucel (hydroxypropylcellulose) (HPC)
[2] = dose: 200.0 mg/kg/injection, schedule: Q01DX009 (ip), vehicle: Klucel (hydroxypropylcellulose) (HPC)
[3] = dose: 400.0 mg/kg/injection, schedule: Q01DX009 (ip), vehicle: Klucel (hydroxypropylcellulose) (HPC)
[4] = dose: 3.13 mg/kg/injection, schedule: Q01DX009 (ip), vehicle: saline
[5] = dose: 6.25 mg/kg/injection, schedule: Q01DX009 (ip), vehicle: saline
[6] = dose: 12.5 mg/kg/injection, schedule: Q01DX009 (ip), vehicle: saline
[7] = dose: 100.0 mg/kg/injection, schedule: Q04DX003 (ip), vehicle: Klucel (hydroxypropylcellulose) (HPC)
[8] = dose: 25.0 mg/kg/injection, schedule: Q01DX009 (ip), vehicle: saline
[9] = dose: 25.0 mg/kg/injection, schedule: Q01DX009 (ip), vehicle: saline with Tween-80
[10] = dose: 50.0 mg/kg/injection, schedule: Q01DX009 (ip), vehicle: saline with Tween-80
[11] = dose: 100.0 mg/kg/injection, schedule: Q01DX009 (ip), vehicle: saline with Tween-80
[12] = dose: 200.0 mg/kg/injection, schedule: Q01DX009 (ip), vehicle: saline with Tween-80
[13] = dose: 400.0 mg/kg/injection, schedule: Q01DX009 (ip), vehicle: saline with Tween-80
[14] = dose: 50.0 mg/kg/injection, schedule: Q01DX009 (ip), vehicle: saline
[15] = dose: 6.25 mg/kg/injection, schedule: Q01DX009 (ip), vehicle: saline with Tween-80
[16] = dose: 12.5 mg/kg/injection, schedule: Q01DX009 (ip), vehicle: saline with Tween-80
[17] = dose: 100.0 mg/kg/injection, schedule: Q04DX003 (ip), vehicle: saline
[18] = dose: 200.0 mg/kg/injection, schedule: Q04DX003 (ip), vehicle: saline

## CN(C)c1ccc(C=C2c3ccccc3-c3ccccc32)cc1
[1]
  T/C: 106 % of control
[2]
  T/C: 103 % of control
[3]
  T/C: 106 % of control

## O=C(NC(CSCc1ccccc1)C(=O)Oc1ccc([N+](=O)[O-])cc1)OCc1ccccc1 (stereo not drawn)
dose: 25.0 mg/kg/injection, schedule: Q01DX009 (ip), vehicle: gum acacia
  T/C: 97 % of control

## C=CC(=O)O
[4]
  T/C: 112 % of control
[5]
  T/C: 114 % of control
[6]
  T/C: 114 % of control

## CCN(CC)CCOCCO
dose: 25.0 mg/kg/injection, schedule: Q01DX009 (ip), vehicle: suspension in saline
  T/C: 107 % of control
dose: 50.0 mg/kg/injection, schedule: Q01DX009 (ip), vehicle: suspension in saline
  T/C: 95 % of control
dose: 100.0 mg/kg/injection, schedule: Q01DX009 (ip), vehicle: suspension in saline
  T/C: 105 % of control
dose: 200.0 mg/kg/injection, schedule: Q01DX009 (ip), vehicle: suspension in saline
  T/C: 96 % of control

## COc1cccc(OC)c1OC(=O)/C=C\C(=O)Oc1c(OC)cccc1OC
dose: 75.0 mg/kg/injection, schedule: Q01DX009 (ip), vehicle: Klucel (hydroxypropylcellulose) (HPC)
  T/C: 100 % of control
dose: 150.0 mg/kg/injection, schedule: Q01DX009 (ip), vehicle: Klucel (hydroxypropylcellulose) (HPC)
  T/C: 100 % of control
dose: 300.0 mg/kg/injection, schedule: Q01DX009 (ip), vehicle: Klucel (hydroxypropylcellulose) (HPC)
  T/C: 100 % of control

## CCOc1ccccc1NC(=O)Nc1ccccc1OC
[1]
  T/C: 86 % of control
[2]
  T/C: 98 % of control
[3]
  T/C: 89 % of control

## CCCCN(c1ccccc1)c1ncnc2c1cnn2C
dose: 100.0 mg/kg/injection, schedule: Q04DX003 (ip), vehicle: saline with Tween-80
  T/C: 100 % of control
dose: 200.0 mg/kg/injection, schedule: Q04DX003 (ip), vehicle: saline with Tween-80
  T/C: 102 % of control
dose: 400.0 mg/kg/injection, schedule: Q04DX003 (ip), vehicle: saline with Tween-80
  T/C: 100 % of control

## c1ccc(CSc2ncnc3nc[nH]c23)cc1
dose: 25.0 mg/kg/injection, schedule: Q01DX009 (ip), vehicle: Klucel (hydroxypropylcellulose) (HPC)
  T/C: 95 % of control
dose: 25.0 mg/kg/injection, schedule: Q04DX003 (ip), vehicle: Klucel (hydroxypropylcellulose) (HPC)
  T/C: 95 % of control
dose: 50.0 mg/kg/injection, schedule: Q04DX003 (ip), vehicle: Klucel (hydroxypropylcellulose) (HPC)
  T/C: 100 % of control
[7]
  T/C: 97 % of control

## CCCC1CCC(=C2C(=O)CCC2=O)O1 (stereo not drawn)
[4]
  T/C: 102 % of control
[5]
  T/C: 100 % of control
[6]
  T/C: 91 % of control
[8]
  T/C: 89 % of control

## CC(=O)Oc1[nH]c(=O)c2cccc3c2c1CCC3
[9]
  T/C: 106 % of control
[10]
  T/C: 107 % of control
[11]
  T/C: 115 % of control
[12]
  T/C: 114 % of control
[13]
  T/C: 105 % of control

## CN(CO)c1nc(N(C)CO)nc(N(C)CO)n1
[5]
  T/C: 111 % of control
[6]
  T/C: 112 % of control and 118 % of control
[8]
  T/C: 110 % of control and 124 % of control
[14]
  T/C: 120 % of control

## [O-][n+]1c(CCl)nc2cccc3c2c1-c1ccccc1-3
[9]
  T/C: 101 % of control
[10]
  T/C: 96 % of control
[11]
  T/C: 90 % of control

## CCN(CC)c1ccc(N)cc1
dose: 5.0 mg/kg/injection, schedule: Q01DX009 (ip), vehicle: saline
  T/C: 109 % of control
dose: 10.0 mg/kg/injection, schedule: Q01DX009 (ip), vehicle: saline
  T/C: 95 % of control
dose: 20.0 mg/kg/injection, schedule: Q01DX009 (ip), vehicle: saline
  T/C: 95 % of control

## CCOC(=O)C(C)(C)Oc1ccc(Cl)cc1
[10]
  T/C: 97 % of control and 113 % of control
[11]
  T/C: 88 % of control and 113 % of control
[12]
  T/C: 102 % of control

## Cc1ccc(C)c(NS(=O)(=O)c2ccc(Cl)cc2)c1
[1]
  T/C: 93 % of control
[2]
  T/C: 92 % of control

## COc1cc2c(c(OC)c1OC)-c1ccc(OC)c(=O)cc1[C@@H](NC(C)=O)CC2
dose: 0.12 mg/kg/injection, schedule: Q01DX009 (ip), vehicle: saline
  T/C: 123 % of control
dose: 0.13 mg/kg/injection, schedule: Q01DX009 (ip), vehicle: saline
  T/C: 120 % of control
dose: 0.25 mg/kg/injection, schedule: Q01DX009 (ip), vehicle: water
  T/C: 179 % of control
dose: 0.4 mg/kg/injection, schedule: Q01DX009 (ip), vehicle: saline
  T/C: 152 % of control
dose: 0.5 mg/kg/injection, schedule: Q01DX009 (ip), vehicle: saline
  T/C: 113 % of control
dose: 0.5 mg/kg/injection, schedule: Q01DX009 (ip), vehicle: water
  T/C: 150 % of control and 154 % of control
dose: 1.0 mg/kg/injection, schedule: Q01DX009 (ip), vehicle: water
  T/C: 166 % of control
dose: 63.0 micrograms/kg/injection, schedule: Q01DX009 (ip), vehicle: saline
  T/C: 121 % of control
dose: 250.0 micrograms/kg/injection, schedule: Q01DX009 (ip), vehicle: saline
  T/C: 150 % of control
dose: 500.0 micrograms/kg/injection, schedule: Q01DX009 (ip), vehicle: saline
  T/C: 151 % of control
dose: 1000.0 micrograms/kg/injection, schedule: Q01DX009 (ip), vehicle: saline
  T/C: 155 % of control

## COC(=O)c1cc2cc3c(c(O)c2c(=O)o1)OC1(Cc2c(O)c4c(c(O)c2O1)C(=O)C(OC)CC4=O)CC3O (stereo not drawn)
dose: 3.13 mg/kg/injection, schedule: Q01DX009 (ip), vehicle: saline with Tween-80
  T/C: 91 % of control
[15]
  T/C: 91 % of control and 93 % of control
[16]
  T/C: 86 % of control
[9]
  T/C: 86 % of control and 88 % of control

## CN(C)CCOC(=O)COc1ccc(Cl)cc1
[8]
  T/C: 104 % of control
[14]
  T/C: 104 % of control
dose: 100.0 mg/kg/injection, schedule: Q01DX009 (ip), vehicle: saline
  T/C: 109 % of control
dose: 200.0 mg/kg/injection, schedule: Q01DX009 (ip), vehicle: saline
  T/C: 102 % of control
dose: 400.0 mg/kg/injection, schedule: Q01DX009 (ip), vehicle: saline
  T/C: 97 % of control

## O=[N+]([O-])c1ccc(NCc2ccccc2)nc1
[9]
  T/C: 100 % of control
[10]
  T/C: 100 % of control
[11]
  T/C: 121 % of control
[12]
  T/C: 105 % of control

## O=NN(CCCl)C(=O)NCCO
dose: 3.12 mg/kg/injection, schedule: Q01DX009 (ip), vehicle: water
  T/C: 176 % of control

## O=S(O)OS(=O)O
dose: 50.0 mg/kg/injection, schedule: Q04DX003 (ip), vehicle: saline
  T/C: 101 % of control
[17]
  T/C: 101 % of control
[18]
  T/C: 94 % of control

## c1ccc2c(c1)CCc1ccccc1C2NC1=NCCO1
[15]
  T/C: 104 % of control
[16]
  T/C: 100 % of control
[9]
  T/C: 92 % of control

## O=C(O)C1CCCN1CCc1ccccc1 (stereo not drawn)
[17]
  T/C: 98 % of control
[18]
  T/C: 103 % of control
dose: 400.0 mg/kg/injection, schedule: Q04DX003 (ip), vehicle: saline
  T/C: 102 % of control

## Nc1ccc2c(c1)CN1C(=O)c3ccccc3C1=N2
[16]
  T/C: 101 % of control
[9]
  T/C: 103 % of control
[10]
  T/C: 111 % of control

## CN(Cc1cnc2nc(N)nc(N)c2n1)c1c(Cl)cc(C(=O)NC(CCC(=O)O)C(=O)O)cc1Br (stereo not drawn)
dose: 25.0 mg/kg/injection, schedule: Q01DX011 (ip), vehicle: saline
  T/C: 101 % of control
dose: 50.0 mg/kg/injection, schedule: Q01DX011 (ip), vehicle: saline
  T/C: 105 % of control

## COc1ccc(/C=C(\NC(C)=O)C(=O)O)cc1
[7]
  T/C: 97 % of control
dose: 200.0 mg/kg/injection, schedule: Q04DX003 (ip), vehicle: Klucel (hydroxypropylcellulose) (HPC)
  T/C: 105 % of control
dose: 400.0 mg/kg/injection, schedule: Q04DX003 (ip), vehicle: Klucel (hydroxypropylcellulose) (HPC)
  T/C: 91 % of control

## CC(=O)/C(C)=C\c1ccccc1
[11]
  T/C: 102 % of control
[12]
  T/C: 95 % of control
[13]
  T/C: 86 % of control
